Tested on: Plasmodium berghei
Experiment: Luciferase/luciferin-expressing antifolate-resistant parasites were used to infect a culture of HepG2 cells that were pre-incubated with compounds. Infected hepatocytes emit light due to the luciferase reaction. Assay results are presented as the percent inhibition of light emission compared to control. […]
Format: functional
Settings: sporozoite; for IC90: read-out: LUCIFERASE INFECTION ASSAY - IC90

Row | SMILES | IC90 [µM] | also measured
1 | Cc1cc(NC(=O)COC(=O)CCCOc2ccc(Cl)cc2C)no1 | > 10 | IC50 (FFLUC_HILL_SLOPE 1.69, FFLUC_R_SQUARED 0.223, read-out: LUCIFERASE INFECTION ASSAY - IC50): > 10 µM
2 | Fc1ccccc1-c1cnn2c(NCCc3ccccn3)ccnc12 | 0.681 | IC50 (FFLUC_HILL_SLOPE 1.74, FFLUC_R_SQUARED 0.803, PBLUC_HILL_SLOPE 0.998, PBLUC_R_SQUARED 0.825, read-out: LUCIFERASE INFECTION ASSAY - IC50): 0.0754 µM
3 | CCCCCCCCCCCc1n[nH]c(=S)n1-c1ccccc1C(F)(F)F | > 8.26 | IC50 (FFLUC_HILL_SLOPE 1.62, FFLUC_R_SQUARED 0.783, read-out: LUCIFERASE INFECTION ASSAY - IC50): > 8.26 µM
4 | O=C(Nc1cccc(S(=O)(=O)NC2CC2)c1)c1ccccc1SCc1ccco1 | 4.79 | IC50 (FFLUC_HILL_SLOPE 1.74, FFLUC_R_SQUARED 0.575, HEPG2TOX_HILL_SLOPE 9.06, HEPG2TOX_R_SQUARED 0.765, PBLUC_HILL_SLOPE 112, PBLUC_R_SQUARED 0.186, read-out: LUCIFERASE INFECTION ASSAY - IC50): 4.7 µM
5 | COCC(C)n1c(C)cc(C(=O)COC(=O)c2ccccc2SCC(=O)NC2CCCCCCC2)c1C (centres undefined) | 5.25 | IC50 (FFLUC_HILL_SLOPE 1.67, FFLUC_R_SQUARED 0.346, PBLUC_HILL_SLOPE 7.4, PBLUC_R_SQUARED 0.408, read-out: LUCIFERASE INFECTION ASSAY - IC50): 3.9 µM
6 | CN(C)c1ccc(-c2cc3cnc(Nc4cccc(Oc5ccccc5)c4)cc3n2C)cc1 | 6.91 | IC50 (FFLUC_HILL_SLOPE 1.74, FFLUC_R_SQUARED 0.698, HEPG2TOX_HILL_SLOPE 44.7, HEPG2TOX_R_SQUARED 0.888, PBLUC_HILL_SLOPE 2.41, PBLUC_R_SQUARED 0.586, read-out: LUCIFERASE INFECTION ASSAY - IC50): 2.77 µM
7 | COCCCNc1nccn2c(-c3ccccc3OC)cnc12 | 5 | IC50 (FFLUC_HILL_SLOPE 1.63, FFLUC_R_SQUARED 0.685, HEPG2TOX_HILL_SLOPE 3.12, HEPG2TOX_R_SQUARED 0.689, PBLUC_HILL_SLOPE 1.97, PBLUC_R_SQUARED 0.68, read-out: LUCIFERASE INFECTION ASSAY - IC50): 1.64 µM
8 | O=C1C(c2ccccc2)=C(c2ccccc2)C(c2ccccc2)=C1c1ccccc1 | > 8.58 | IC50 (FFLUC_HILL_SLOPE 1.74, FFLUC_R_SQUARED 0.65, PBLUC_HILL_SLOPE 1.01, PBLUC_R_SQUARED 0.27, read-out: LUCIFERASE INFECTION ASSAY - IC50): 4.04 µM
9 | O=C(Sc1ccc(Cl)cc1Cl)c1cccnc1SCCS(=O)(=O)c1ccc(C(F)(F)F)cn1 | > 5.96 | IC50 (FFLUC_HILL_SLOPE 1.65, FFLUC_R_SQUARED 0.565, PBLUC_HILL_SLOPE 0.597, PBLUC_R_SQUARED 0.0951, read-out: LUCIFERASE INFECTION ASSAY - IC50): > 5.96 µM
10 | CC(C)c1csc(NC(=O)c2cnn(-c3ccccc3F)c2C(F)(F)F)n1 | 2.32 | IC50 (FFLUC_HILL_SLOPE 1.67, FFLUC_R_SQUARED 0.227, HEPG2TOX_HILL_SLOPE 2.85, HEPG2TOX_R_SQUARED 0.664, PBLUC_HILL_SLOPE 0.553, PBLUC_R_SQUARED 0.884, read-out: LUCIFERASE INFECTION ASSAY - IC50): 0.0438 µM
11 | Cc1csc(NC(=O)c2cc(C3CC3)n[nH]2)n1 | > 10 | IC50 (FFLUC_HILL_SLOPE 1.65, FFLUC_R_SQUARED 0.902, read-out: LUCIFERASE INFECTION ASSAY - IC50): > 10 µM
12 | Cc1cccc(C(=O)Nc2nnc(SCc3ccc(C#N)cc3)s2)n1 | 6.71 | IC50 (FFLUC_HILL_SLOPE 1.7, FFLUC_R_SQUARED 0.312, PBLUC_HILL_SLOPE 60.1, PBLUC_R_SQUARED 0.803, read-out: LUCIFERASE INFECTION ASSAY - IC50): 6.47 µM
13 | CCc1cccc(Nc2nc3ccccc3s2)c1 | > 10 | IC50 (FFLUC_HILL_SLOPE 1.67, FFLUC_R_SQUARED 0.624, read-out: LUCIFERASE INFECTION ASSAY - IC50): > 10 µM
14 | CCc1ccc(NC(=O)CN(c2cccc3ccccc23)S(=O)(=O)c2ccc(C)c(C)c2)cc1 | > 10 | IC50 (FFLUC_HILL_SLOPE 1.69, FFLUC_R_SQUARED 0.486, read-out: LUCIFERASE INFECTION ASSAY - IC50): > 10 µM
15 | CCN(CC)S(=O)(=O)c1ccc(NC(=O)c2ccccc2Nc2cccc(C(F)(F)F)c2)cc1 | > 10 | IC50 (FFLUC_HILL_SLOPE 1.74, FFLUC_R_SQUARED 0.823, read-out: LUCIFERASE INFECTION ASSAY - IC50): > 10 µM
16 | O=[N+]([O-])c1ccc(Oc2c(Cl)cc(S(=O)(=O)Nc3cccc(C(F)(F)F)c3)cc2Cl)c(Cl)c1 | > 6.09 | IC50 (FFLUC_HILL_SLOPE 1.65, FFLUC_R_SQUARED 0.655, read-out: LUCIFERASE INFECTION ASSAY - IC50): > 6.09 µM

Row | SMILES | IC90 [µM] | also measured
17 | Fc1cccc(Cl)c1CSc1ccc(Cl)c(Cl)c1 | > 10.3 | IC50 (FFLUC_HILL_SLOPE 1.69, FFLUC_R_SQUARED 0.519, read-out: LUCIFERASE INFECTION ASSAY - IC50): > 10.3 µM
18 | CN(C)c1ccc(C(c2cc(C(C)(C)C)c(O)c(C(C)(C)C)c2)N2CCN(CCO)CC2)cc1 (centres undefined) | > 10 | IC50 (FFLUC_HILL_SLOPE 1.7, FFLUC_R_SQUARED 0.646, PBLUC_HILL_SLOPE 0.736, PBLUC_R_SQUARED 0.152, read-out: LUCIFERASE INFECTION ASSAY - IC50): > 10 µM
19 | COc1ccc(C(=O)Nc2nc3ccc(C)cn3c2C(=O)NC2CCCC2)cc1 | 8.02 | IC50 (FFLUC_HILL_SLOPE 1.65, FFLUC_R_SQUARED 0.455, HEPG2TOX_HILL_SLOPE 5.25, HEPG2TOX_R_SQUARED 0.908, PBLUC_HILL_SLOPE 10.6, PBLUC_R_SQUARED 0.223, read-out: LUCIFERASE INFECTION ASSAY - IC50): 6.52 µM
20 | Cn1c(-c2c(-c3ccccc3)n[nH]c2-c2ccccc2O)nc2ccccc21 | > 10 | IC50 (FFLUC_HILL_SLOPE 1.64, FFLUC_R_SQUARED 0.277, read-out: LUCIFERASE INFECTION ASSAY - IC50): > 10 µM
21 | CN1/C(=C\C(=O)COC(=O)/C=C/c2cn(-c3ccccc3)nc2-c2ccc(F)cc2)C(C)(C)c2ccccc21 | > 10 | IC50 (FFLUC_HILL_SLOPE 1.67, FFLUC_R_SQUARED 0.511, PBLUC_HILL_SLOPE 9.36, PBLUC_R_SQUARED 0.0694, read-out: LUCIFERASE INFECTION ASSAY - IC50): 9.4 µM
22 | CC(C)CCOc1ccc(C(C2C(=O)CC(C)(C)CC2=O)C2C(=O)CC(C)(C)CC2=O)cc1 | > 10 | IC50 (FFLUC_HILL_SLOPE 1.63, FFLUC_R_SQUARED 0.537, read-out: LUCIFERASE INFECTION ASSAY - IC50): > 10 µM
23 | CCN(c1ccc(NC(=O)c2cnccn2)cc1)C(C)C | > 10 | IC50 (FFLUC_HILL_SLOPE 1.65, FFLUC_R_SQUARED 0.318, PBLUC_HILL_SLOPE 0.412, PBLUC_R_SQUARED 0.204, read-out: LUCIFERASE INFECTION ASSAY - IC50): > 10 µM
24 | O=C(NCC#Cc1cccc(C(F)(F)F)c1)c1[nH]nc2ccccc12 | > 10 | IC50 (FFLUC_HILL_SLOPE 1.72, FFLUC_R_SQUARED 0.47, read-out: LUCIFERASE INFECTION ASSAY - IC50): > 10 µM
25 | CCCCCN1C(=O)/C(=N\n2c(-c3ccccc3F)cs/c2=N\C2CCCCC2)c2ccccc21 | > 10 | IC50 (FFLUC_HILL_SLOPE 1.7, FFLUC_R_SQUARED 0.73, PBLUC_HILL_SLOPE 13.5, PBLUC_R_SQUARED 0.29, read-out: LUCIFERASE INFECTION ASSAY - IC50): 8.58 µM
26 | O=C(Cn1ncc(Cl)c(Cl)c1=O)N1N=C(c2ccco2)CC1c1cccs1 (centres undefined) | > 10 | IC50 (FFLUC_HILL_SLOPE 1.67, FFLUC_R_SQUARED 0.501, PBLUC_HILL_SLOPE 2.36, PBLUC_R_SQUARED 0.757, read-out: LUCIFERASE INFECTION ASSAY - IC50): 4.46 µM
27 | O=C(Nc1ccc(F)c(Cl)c1)c1[nH]nc2ccccc12 | > 10 | IC50 (FFLUC_HILL_SLOPE 1.67, FFLUC_R_SQUARED 0.554, PBLUC_HILL_SLOPE 0.29, PBLUC_R_SQUARED 0.519, read-out: LUCIFERASE INFECTION ASSAY - IC50): 0.104 µM
28 | O=C(OCc1ccc(Cl)cc1)c1cnc(NNc2ncc(C(=O)OCc3ccc(Cl)cc3)c(C(F)(F)F)n2)nc1C(F)(F)F | 0.682 | IC50 (FFLUC_HILL_SLOPE 1.7, FFLUC_R_SQUARED 0.396, HEPG2TOX_HILL_SLOPE 1.81, HEPG2TOX_R_SQUARED 0.829, PBLUC_HILL_SLOPE 10.6, PBLUC_R_SQUARED 0.55, read-out: LUCIFERASE INFECTION ASSAY - IC50): 0.554 µM
29 | COc1ccc(C2=NNC(=NCc3ccc4c(c3)OCO4)SC2)cc1F | > 10 | IC50 (FFLUC_HILL_SLOPE 1.69, FFLUC_R_SQUARED 0.437, PBLUC_HILL_SLOPE 4.83, PBLUC_R_SQUARED 0.0332, read-out: LUCIFERASE INFECTION ASSAY - IC50): 8.77 µM
30 | CC1CC(=O)N(CC(=O)Nc2ccc(C(F)(F)F)cc2)N=C1c1ccc(Cl)cc1 (centres undefined) | > 10 | IC50 (FFLUC_HILL_SLOPE 1.68, FFLUC_R_SQUARED 0.0802, HEPG2TOX_HILL_SLOPE 1.48, HEPG2TOX_R_SQUARED 0.946, read-out: LUCIFERASE INFECTION ASSAY - IC50): > 10 µM
31 | c1ccc(-c2cn3nc(N4CCN(Cc5cn6ccccc6n5)CC4)sc3n2)cc1 | 6.12 | IC50 (FFLUC_HILL_SLOPE 1.63, FFLUC_R_SQUARED 0.146, PBLUC_HILL_SLOPE 1.5, PBLUC_R_SQUARED 0.683, read-out: LUCIFERASE INFECTION ASSAY - IC50): 1.42 µM
32 | COc1ccc(NC(=O)Cc2cccs2)cc1S(=O)(=O)Nc1ccc(Cl)cc1 | > 10 | IC50 (FFLUC_HILL_SLOPE 1.73, FFLUC_R_SQUARED 0.168, HEPG2TOX_HILL_SLOPE 1.26, HEPG2TOX_R_SQUARED 0.964, PBLUC_HILL_SLOPE 12.3, PBLUC_R_SQUARED 0.183, read-out: LUCIFERASE INFECTION ASSAY - IC50): 9.75 µM
